This note sets out measurements from US9119877B2, “Therapeutic combination comprising a Cdc7 inhibitor and an anti-neoplastic agent” (NERVIANO MEDICAL SCIENCES S.R.L., priority 2010, dated 2015).

Like-named read-outs stand apart in the source and are kept apart here.

Series [1] deals with L-363 human Multiple Myeloma cell line. The series is described as follows: cell proliferation (CellTiterGlo), single agents and combinations, L-363. The format is cell-based. How it is done:
(§1) Materials and methods. Exponentially growing human breast cancer (Mcf-7), human ovarian cancer (A-2780), human multiple myeloma (L-363), human colorectal cancer (HCT-116) and human melanoma (A-375) cell lines were seeded and incubated at 37° C. in a humidified 5% CO2 atmosphere. Drugs were added to the experimental culture, and incubations were carried out at 37° C. for 72 hours in the dark. Scalar doses of the compound of formula (I) and antineoplastic agents were added to the medium starting from 24 hours after seeding. Drug solutions were prepared immediately before use. At the end of treatment, cell proliferation was determined by an intracellular adenosine triphosphate monitoring system (CellTiterGlo-Promega) using an Envision (PerkinElmer) reader. Inhibitory activity was evaluated comparing treated versus control data using the Assay Explorer (MDL) program. The dose inhibiting 50% of cell growth was calculated using sigmoidal interpolation curve. Combination indices (C.I.) were calculated using a proprietary computer program for multiple drug effect analysis based on the equation of Chou-Talalay (Adv Enzyme Regul 1984;22:27-55) for mutually nonexclusive drugs, where a C.I. of <1 indicates a more than additive effect: C.I.: >3 strong antagonism; 1.3-3 antagonism; 1.2-0.8 additivity; 0.8-0.3 synergism; <0.3 strong synergism.

The test system of series [2] is Mcf-7 human breast adenocarcinoma cell line. Put plainly: cell proliferation (CellTiterGlo), single agents and combinations, Mcf-7. The format is cell-based. On the procedure:
(§2) Materials and methods. […] Drugs were added to the experimental culture, and incubations were carried out at 37° C. for 72 hours in the dark. […] Drug solutions were prepared immediately before use. At the end of treatment, cell proliferation was determined by an intracellular adenosine triphosphate monitoring system (CellTiterGlo-Promega) using an Envision (PerkinElmer) reader. Inhibitory activity was evaluated comparing treated versus control data using the Assay Explorer (MDL) program. The dose inhibiting 50% of cell growth was calculated using sigmoidal interpolation curve.
(In general: ATP-based viability assays read luminescence as a measure of living cells.)

For series [3], the system named is A2780 human ovarian carcinoma cell line. The series is described as follows: cell proliferation (CellTiterGlo), single agents and combinations, A2780. The format is cell-based. Particulars: single agent, 72 hours. On the procedure:
as §1

Series [4] has as its system HCT116 human colon carcinoma cell line. Put plainly: cell proliferation (CellTiterGlo), single agents and combinations, HCT116. Format: cell-based. On the procedure:
as §2

Series [5] deals with A375 human melanoma cell line. Put plainly: cell proliferation (CellTiterGlo), single agents and combinations, A375. The format is cell-based. Conditions: A-375, 72 h. How it is done: as §2
Series [6] deals with MX-1 human breast carcinoma. The series is described as follows: tumor growth delay, MX-1 xenograft, combination with bevacizumab. Conditions: MX-1 in CD-1 Nu/Nu female mice, time to reach 1 g. The format is in vivo. How it is done:
(§3) Animals were examined regularly for the appearance of tumors. The treatment started when tumors were palpable. Compound of formula (I) was administered by oral route in a volume of 10 ml/kg at the daily dose of 20 mg/kg on days 2, 4, 6, 8, 10 and 12. Bevacizumab was administered by intravenous route at the dose of 20 mg/kg on days 1, 5, 9 and 13. When combined, compound of formula (I) was administered on days 2, 4, 6, 8, 10 and 12 and bevacizumab on days 1, 5, 9 and 13. […] Tumor growth was assessed by caliper.

Series [7] in a line: toxicity on the basis of body weight reduction, MX-1 study with bevacizumab. The format is in vivo. On the procedure:
as §3

Series [8] has as its system HCT-116 human colon cancer tumors. Put plainly: tumor growth delay, HCT-116 xenograft, combination with irinotecan. The format is in vivo. Conditions: HCT-116 in Balb Nu/Nu male mice, time to reach 1 g. On the procedure: (§4) Balb, Nu/Nu male mice, from Harlan (Italy), were maintained in agreement with the European Communities Council Directive no. 86/609/EEC, in cages with paper filter cover, food and bedding sterilized and acidified water. Fragments of HCT-116 human colon cancer tumors were implanted subcutaneously. The treatment started when tumors were palpable. […] Irinotecan was administered by intravenous route at the dose of 45 mg/kg on days 1, 5, 9. […] Tumor growth was assessed by caliper.

Series [9] is described as follows: toxicity on the basis of body weight reduction, HCT-116 study with irinotecan. Format: in vivo. On the procedure: as §4
Series [10] concerns MX-1 human breast carcinoma. Put plainly: tumor growth delay, MX-1 xenograft, combination with docetaxel. Format: in vivo. Particulars: MX-1 in CD1 Nu/Nu female mice, time to reach 1 g. How it is done:
(§5) CD1 Nu/Nu female mice were obtained from Charles River, Italy, The animals were maintained in cages using steam autoclaved (sterile) bedding, sterilized diet and water were offered ad libitum. MX-1 human breast carcinoma (from American Type Culture Collection) was maintained by subcutaneous (SC) transplantation in athymic mice. Viable MX-1 tumor fragments (weighting 20-30 mg) were obtained aseptically from stock tumors and transplanted subcutaneously by trocar implantation into the left flank of athymic nude mice. Animals were examined regularly for the appearance of tumors.
(§6) Docetaxel was administered by intravenous route at the dose of 5 mg/kg on days 1, 8, 15. […] Tumor growth and body weight were measured every 3 days, Tumor growth was assessed by caliper. The two diameters were recorded and the tumor weight was calculated according to the following formula: length (mm)×width^2/2. The effect of the antitumor treatment was evaluated as the delay in the onset of an exponential growth of the tumor (see for references Anticancer drugs 7:437-60, 1996). This delay (T-C value) was defined as the difference of time (in days) required for the treatment group (T) and the control group (C) tumors to reach a predetermined size (1 g). Toxicity was evaluated on the basis of body weight reduction.

For series [11] the following is noted: female, CD1 Nu/Nu, mouse, in vivo. On the procedure: as §5, §6
Where [12] appears, read: 20 mg/kg oral on days 2, 4, 6, 8, 10, 12.

For orientation: IC50 means the midpoint of a concentration-inhibition curve. `CC1(C)CCC(c2ccc(Cl)cc2)=C(CN2CCN(c3ccc(C(=O)NS(=O)(=O)c4ccc(N[C@H](CCN5CCOCC5)CSc5ccccc5)c(S(=O)(=O)C(F)(F)F)c4)cc3)CC2)C1` [ABT-263, Navitoclax]: the IC50 in [1] (L-363, single agent, 72 hours, Table 10, read-out: IC50 (μM) ABT-263) came to 7.3 µM.
Consider `NC(=O)c1cc(-c2ccnc(N)n2)[nH]c1-c1ccc(Cl)cc1Cl` [Compound of formula (I), 5-(2-Amino-pyrimidin-4-yl)-2-(2,4-dichloro-phenyl)-1H-pyrrole-3-carboxylic acid amide], for which the concentration for half-maximal inhibition (IC50) was 1.1 µM in series [2] (Homo sapiens, MCF7, 72 h, read-out: IC50 (μM) Compound of formula (I), Mcf-7, single agent, Table 1 (gemcitabine experiment)); 1.7 µM in series [2] (Homo sapiens, MCF7, 72 h, read-out: IC50 (μM) Compound of formula (I), Mcf-7, single agent, Table 2 (cisplatin experiment)); 0.77 µM in [2] (Homo sapiens, MCF7, 72 h, read-out: IC50 (μM) Compound of formula (I), Mcf-7, single agent, Table 4 (SN-38 experiment)); 1.11 µM in series [2] (Homo sapiens, MCF7, 72 h, read-out: IC50 (μM) Compound of formula (I), Mcf-7, single agent, Table 5 (etoposide experiment)); 0.67 µM in series [2] (Homo sapiens, MCF7, 72 h, read-out: IC50 (μM) Compound of formula (I), Mcf-7, single agent, Table 6 (paclitaxel experiment)); 1.87 µM in series [2] (Homo sapiens, MCF7, 72 h, read-out: IC50 (μM) Compound of formula (I), Mcf-7, single agent, Table 7 (erlotinib experiment)). In addition, the IC50 in series [2] (Homo sapiens, MCF7, 72 h, read-out: IC50 (μM) Compound of formula (I), Mcf-7, single agent, Table 8 (bortezomib experiment)) came out at 0.767 µM; in series [3] (Homo sapiens, Table 3 (cisplatin experiment), read-out: IC50 (μM) Compound of formula (I)), 0.52 µM; in series [4] (HCT-116, 72 h, read-out: IC50 (μM) Compound of formula (I)), 0.8 µM; in series [1] (L-363, 72 h, read-out: IC50 (μM) Compound of formula (I)), 0.38 µM; in [5] (read-out: IC50 (μM) Compound of formula (I), A375, single agent, Table 11 (dacarbazine, sequential experiment)), 1.21 µM; in series [5] (read-out: IC50 (μM) Compound of formula (I), A375, single agent, Table 12 (dacarbazine, simultaneous experiment)), 0.86 µM. The “T-C” value is reported as 13 days in [6] (setting [12]); 4 days in series [8] (setting [12]); 10 days in [10] (20 mg/kg oral on days 2, 4, 6, 9, 11, 13). For the same molecule, the Toxicity is 0/7 in [7] (female, CD-1 Nu/Nu, mouse, in vivo, po, 20 mg/kg); 0/7 in [9] (male, Balb Nu/Nu, mouse, in vivo, po, 20 mg/kg); 0/7 in series [11] (po, 20 mg/kg).
With `Nc1ccn([C@@H]2O[C@H](CO)[C@@H](O)C2(F)F)c(=O)n1` [Gemcitabine, gemcitabine], the half-maximal inhibitory concentration (IC50) in series [2] (Homo sapiens, MCF7, Mcf-7, single agent, 72 hours, Table 1, read-out: IC50 (μM) Gemcitabine) turned out to be 0.79 µM.
As for `CCc1c2c(nc3ccc(O)cc13)-c1cc3c(c(=O)n1C2)COC(=O)[C@]3(O)CC` [SN38, SN-38], in [2] (Mcf-7, single agent, 72 hours, Table 4, read-out: IC50 (μM) SN38), the IC50 is 0.024 µM.
With `CC(C)C[C@H](NC(=O)[C@H](Cc1ccccc1)NC(=O)c1cnccn1)B(O)O` [bortezomib], the IC50 came out at 0.011 µM in series [2] (Homo sapiens, MCF7, Mcf-7, single agent, 72 hours, Table 8, read-out: IC50 (μM) bortezomib) and 0.009 µM in series [4] (HCT-116, HCT116, single agent, 72 hours, Table 9, read-out: IC50 (μM) bortezomib).
As for `N.N.[Cl][Pt][Cl]` [cisplatin], the half-inhibitory concentration (IC50) in [2] (Mcf-7, single agent, 72 hours, Table 2, read-out: IC50 (μM) cisplatin) was 10.2 µM; in [3] (Table 3, read-out: IC50 (μM) cisplatin) it was 3 µM.
`CN(C)/N=N/c1[nH]cnc1C(N)=O` [dacarbazine]: the IC50 came to 37 µM in series [5] (A375, single agent, Table 11 (sequential experiment), read-out: IC50 (μM) dacarbazine) and 83 µM in series [5] (A375, single agent, Table 12 (simultaneous experiment), read-out: IC50 (μM) dacarbazine).
As to `CC(=O)O[C@@]12CO[C@@H]1C[C@H](O)[C@@]1(C)C(=O)[C@H](O)C3=C(C)[C@@H](OC(=O)[C@H](O)[C@@H](NC(=O)OC(C)(C)C)c4ccccc4)C[C@@](O)([C@@H](OC(=O)c4ccccc4)[C@H]21)C3(C)C` [docetaxel], the “T-C” value in series [10] (5 mg/kg intravenous on days 1, 8, 15) came out at 9 days. The Toxicity in series [11] (iv, 5 mg/kg) was 0/7.
`C#Cc1cccc(Nc2ncnc3cc(OCCOC)c(OCCOC)cc23)c1` [erlotinib]: in [2] (Homo sapiens, MCF7, Mcf-7, single agent, 72 hours, Table 7, read-out: IC50 (μM) erlotinib), the 50% inhibitory concentration (IC50) came out at 74.8 µM.
Take `COc1cc([C@@H]2c3cc4c(cc3[C@@H](O[C@@H]3O[C@@H]5CO[C@@H](C)O[C@H]5[C@H](O)[C@H]3O)[C@H]3COC(=O)[C@H]23)OCO4)cc(OC)c1O` [etoposide]: the concentration for half-maximal inhibition (IC50) in [2] (Homo sapiens, MCF7, Mcf-7, single agent, 72 hours, Table 5, read-out: IC50 (μM) etoposide) was 12.7 µM.
On to `CCc1c2c(nc3ccc(OC(=O)N4CCC(N5CCCCC5)CC4)cc13)-c1cc3c(c(=O)n1C2)COC(=O)[C@]3(O)CC` [irinotecan], for which, in series [8] (45 mg/kg intravenous on days 1, 5, 9), the “T-C” value amounted to 18 days. For the same molecule, the Toxicity in series [9] (HCT-116 study, 45 mg/kg intravenous on days 1, 5, 9, body weight reduction) was 0/7.
`CC(=O)O[C@H]1C(=O)[C@@]2(C)[C@H]([C@H](OC(=O)c3ccccc3)[C@]3(O)C[C@H](OC(=O)[C@H](O)[C@@H](NC(=O)c4ccccc4)c4ccccc4)C(C)=C1C3(C)C)[C@]1(OC(C)=O)CO[C@@H]1C[C@@H]2O` [paclitaxel]: the half-inhibitory concentration (IC50) in [2] (Homo sapiens, MCF7, Mcf-7, single agent, 72 hours, Table 6, read-out: IC50 (μM) paclitaxel) was found to be 0.008 µM.
In the case of bevacizumab, the “T-C” value in series [6] (20 mg/kg intravenous on days 1, 5, 9, 13) amounted to 13 days. Further, the Toxicity in series [7] (MX-1 study, 20 mg/kg intravenous on days 1, 5, 9, 13, body weight reduction) is given as 0/7.
